Assays:
[1] = system: alpha-glucosidase (Sigma); assay: Test of alpha-glucosidase inhibitory effect; type: biochemical; settings: 0.01 ml of 10 mg/ml sample; 50 U/ml alpha-glucosidase; 5 mM p-nitrophenyl-α-D-glucopyranoside, 37° C., 5 minutes; absorbance at 405 nm; untreated group = 100.0
Method: In this regard, the deoxynojirimycin was used as a positive control group. Each of the samples was measured for absorbance at 405 nm to determine initial absorbance, and 0.05 ml of 5 mM p-nitrophenyl-α-D-glucopyranoside as a substrate was added thereto and subjected to an enzymatic reaction at 37° C. for 5 minutes. Then, each sample was measured for absorbance at 405 nm, and the enzyme activity inhibition thereof was calculated according to Math Figure 1. Alpha-glucosidase activity inhibition (%)=100−(absorbance of each test sample/absorbance of control group×100) [Math Figure 1]

[2] = system: tyrosinase in human melanoma cell HM3KO cells; assay: Effect on glycosylation of human melanoma cell tyrosinase (endoglycosidase H digestion, electrophoresis, immunodetection); type: cell-based; settings: HM3KO cells cultured to confluency with 0.05% sample; about 72 kD = normally glycosylated, about 60 kD = glycosylation inhibited
Method: In order to examine the effect of icariside II on the glycosylation of tyrosinase in human melanoma cells, the following test was carried out. First, human melanoma cell HM3KO cells (Y. Funasaka, Department of dermatology, Kobe university school of medicine, 5-1 Kusunoki-cho 7-chrome, Chuo-ku, Kobe 650, Japan) were cultured in a minimum essential medium (MEM), containing 10% bovine fetal serum, under conditions of 37° C. and 5% CO2. The cultured cells were placed in 75 cm^2 flasks at a cell density of 3×10^5 cells and left to stand overnight, such that the cells adhered to the flask wall. From the next day, the medium was replaced with a fresh medium, containing each of icariin icariside II of Example 1 and deoxynojirimycin in an amount of 0.05%. Herein, the deoxynojirimycin was used as a positive control group. The medium was replaced with a fresh medium containing each of the samples at a 1-2-day interval, and the cells were cultured to confluency in the flasks. When the cells reached confluency, the cells were collected, added to lysis buffer (2% CHAPS in 50 mM Hepes and 200 mM NaCl, pH 7.5, protease inhibitors) and ultrasonically disrupted. The disrupted cell solution was centrifuged at 4° C. and 12000 rpm for 10 minutes, unbroken cells and melanin were separated and removed, and only the supernatant was collected. Endoglycosidase H (125 units) was added to the supernatant (protein amount: […]), and the supernatant was subjected to an enzymatic reaction at 37° C. for 1 hour. Then, proteins in the supernatant were separated according to size by electrophoresis. Among the proteins separated by electrophoresis, tyrosinase could be observed by an immune reaction with an antibody. […]

human skin = assay: Test of whitening effect on human skin after UVB-induced blackness; type: in vivo; settings: 1% solution in 1,3-butyleneglycol:ethanol=7:3 applied to UVB-irradiated upper arm of 12 healthy men, 10 weeks; ΔL* higher than about 1.5 = whitening effect
Text: First, a perforated opaque tape having a diameter of 1.5 cm was attached to the upper arm of each of 12 healthy men. Then, UV rays (UVB) were irradiated to each of the subjects at a dose 1.5-2 times higher than the minimal erythema dose of each subject, thus inducing skin's blackness.
After the UV irradiation, each of a 1% solution of icariside (1,3-butyleneglycol:ethanol=7:3, as a vehicle), prepared in Example 1, a 1% solution of hydroquinone, a 1% solution of vehicle (negative control group), was applied to the skin of each subject. […] The skin color was measured with a colorimeter (Minolta, Japan) at a 1-week interval.
ΔL*=L* value at time point of completion of application−L* value at time point of start of application [Math Figure 2]

Compound | Activity inhibition (%) [1] [%] | size of tyrosinase after endoglycosidase H treatment (FIG. 1) [2] | Lightless (ΔL*) of skin color (human skin)
COc1ccc(-c2oc3c(CC=C(C)C)c(O)cc(O)c3c(=O)c2O[C@@H]2O[C@H](C)[C@@H](O)[C@H](O)[C@@H]2O)cc1 [Example 5, icariside II] | 37.8 |  | 
COc1ccc(-c2oc3c(CC=C(C)C)c(O)cc(O)c3c(=O)c2O[C@@H]2O[C@H](C)[C@@H](O)[C@H](O)[C@@H]2O)cc1 [Example 2, icariside II] | 38.8 |  | 
COc1ccc(-c2oc3c(CC=C(C)C)c(O)cc(O)c3c(=O)c2O[C@@H]2O[C@H](C)[C@@H](O)[C@H](O)[C@@H]2O)cc1 [Example 1, icariside II] | 38.2 | about 60 kD | 1.97 ± 0.25
COc1ccc(-c2oc3c(CC=C(C)C)c(O)cc(O)c3c(=O)c2O[C@@H]2O[C@H](C)[C@@H](O)[C@H](O)[C@@H]2O)cc1 [Example 3, icariside II] | 37.5 |  | 
COc1ccc(-c2oc3c(CC=C(C)C)c(O)cc(O)c3c(=O)c2O[C@@H]2O[C@H](C)[C@@H](O)[C@H](O)[C@@H]2O)cc1 [Example 4, icariside II] | 37.9 |  | 
OC[C@H]1NC[C@H](O)[C@@H](O)[C@@H]1O [Deoxynojirimycin, deoxynojirimycin, reference compound] | 41.1 | about 60 kD | 
COc1ccc(-c2oc3c(CC=C(C)C)c(O[C@@H]4O[C@H](CO)[C@@H](O)[C@H](O)[C@H]4O)cc(O)c3c(=O)c2O[C@@H]2O[C@@H](C)[C@H](O)[C@@H](O)[C@H]2O)cc1 [Icariin, icariin, reference compound] | 98.8 | about 72 kD | 
Oc1ccc(O)cc1 [Hydroquinone, hydroquinone, reference compound] |  |  | 1.90 ± 0.11

Source: patent US20100062492A1, “Method For Preparing Icariside II, Cosmetic Composition Containing The Same and the Use Thereof For Skin Whitening” (Amorepacific Corporation, priority 2006, published 2010)
